# Experimental data as given in US20250368628A1, “METHODS AND COMPOUNDS FOR MODULATING INHERITED GENETIC DISEASES” (Design Therapeutics, Inc., priority 2022, published 2025).
# Where two headings read alike, the source gives them in different places.
# Assays:
# [1] = system: Myotonic Dystrophy 1 affected patient fibroblasts (Coriel GM04602; 1600 CTG repeats); assay: DM1 foci reduction assay (EC50 assay; CAG10-Cy3 FISH, foci per nucleus); type: cell-based
# Summary of the method: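 Foci per nucleus counted by 20× imaging of 4 areas per well, after overnight FISH with 5 nM CAG10-Cy3 and DAPI staining of fixed, permeabilized cells. DM1 fibroblasts (GM04602, 1600 CTG) were dosed 48 h at 37 °C, 8 points, 3-fold dilutions, 3 μM top concentration.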
# [2] = system: F35T cells; assay: Foci reduction in FECD (CAG10-Cy3 FISH, foci per nucleus); type: cell-based
# Summary of the method: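 Foci per nucleus were counted by imaging after overnight CAG10-Cy3 FISH at 37 °C (30% formamide, 2×SSC) with DAPI counterstain, on PFA-fixed, ethanol-permeabilized F35T cells. The cells, seeded at 5000 per well in supplemented Opti-MEM, had received 8-point compound dilutions for 48 h at 37 °C.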
# [3] = Homo sapiens, Fibroblast; DM1 patient fibroblasts, 48 h treatment, foci per nucleus; read-out: DM1 EC50, 48 h
# [4] = F35T cells, 48 h treatment, foci per nucleus; read-out: FECD EC50, 48 h
# [5] = Homo sapiens, Fibroblast; DM1 patient fibroblasts, foci per nucleus, 48 h treatment; read-out: DM1 EC50, 48 h
# [6] = F35T cells, foci per nucleus, 48 h treatment; read-out: FECD EC50, 48 h
SMILES,"EC50 [1, 3]","EC50 [2, 4]","EC50 [1, 5]","EC50 [2, 6]"
CC(=O)N1CCC(C#CC#CC2CCN(C(=O)CCNC(=O)c3nc(NC(=O)c4cc(NC(=O)CCNC(=O)c5nc(NC(=O)CCCNC(=O)c6cc(NC(=O)c7nc(NC(=O)CCNC(=O)c8cc(NC(=O)c9nccn9C)cn8C)cn7C)cn6C)cn5C)cn4C)cn3C)CC2)CC1 [Compound B-379],0.1 to 0.5 µM,< 0.1 µM,–,–
Cn1cc(NC(=O)c2nc(NC(=O)CCNC(=O)c3cc(NC(=O)c4nccn4C)cn3C)cn2C)cc1C(=O)NCCCC(=O)Nc1cn(C)c(C(=O)NCCC(=O)Nc2cc(C(=O)Nc3cn(C)c(C(=O)NCCCNCC#Cc4cccc(C(=O)O)c4)n3)n(C)c2)n1 [Compound B-248],0.1 to 0.5 µM,< 0.1 µM,–,–
CCCCn1cc(NC(=O)c2nc(NC(=O)CCNC(=O)c3cc(NC(=O)c4nccn4C)cn3C)cn2C)cc1C(=O)NC[C@H](N)CC(=O)Nc1cn(C)c(C(=O)NCCC(=O)Nc2cc(C(=O)Nc3cn(C)c(C(=O)NCCC(=O)N4CCN(C)CC4)n3)n(C)c2)n1 [Compound B-420],–,–,0.1 to 0.5 µM,0.5 to 1 µM
COCCOCCOCCOCCN(CCOCCOCCOCCOC)C(=O)CCCCn1cc(NC(=O)c2nc(NC(=O)CCNC(=O)c3cc(NC(=O)c4nccn4C)cn3C)cn2C)cc1C(=O)NCCCC(=O)Nc1cn(C)c(C(=O)NCCC(=O)Nc2cc(C(=O)Nc3cn(C)c(C(=O)NCCC(=O)NCCOCCOCCOCCN4CCC(C#CC#CC5CCNCC5)CC4)n3)n(C)c2)n1 [Compound B-229],> 1 µM,> 1 µM,–,–
CC(=O)N1CCC(N2CCN(C(=O)CCNC(=O)c3nc(NC(=O)c4cc(NC(=O)CCNC(=O)c5nc(NC(=O)CCCNC(=O)c6cc(NC(=O)c7nc(NC(=O)CCNC(=O)c8cc(NC(=O)c9nccn9C)cn8C)cn7C)cn6C)cn5C)cn4C)cn3C)CC2)CC1 [Compound B-119],0.1 to 0.5 µM,0.5 to 1 µM,–,–
C=C(NCCC(=O)Nc1cc(C(=O)Nc2cn(C)c(C(=O)NCCC(=O)NCCC)n2)n(C)c1)c1nc(NC(=O)CCCNC(=O)c2cc(NC(=O)c3nc(NC(=O)CCNC(=O)c4cc(NC(=O)c5nccn5C)cn4C)cn3C)cn2CCCNC(=O)c2ccccc2)cn1C [Compound B-399],0.5 to 1 µM,< 0.1 µM,–,–
CCCNC(=O)CCNC(=O)c1nc(NC(=O)c2cc(NC(=O)CCNC(=O)c3nc(NC(=O)CCCNC(=O)c4cc(NC(=O)c5nc(NC(=O)CCNC(=O)c6cc(NC(=O)c7nccn7C)cn6C)cn5C)cn4CCNC(C)=O)cn3C)cn2C)cn1C [Compound B-268],0.1 to 0.5 µM,< 0.1 µM,–,–
Cn1cc(NC(=O)c2nc(NC(=O)CCNC(=O)c3cc(NC(=O)c4nccn4C)cn3C)cn2C)cc1C(=O)NCCCC(=O)Nc1cn(C)c(C(=O)NCCC(=O)Nc2cc(C(=O)Nc3cn(C)c(C(=O)NCCC(=O)NCCOCCOc4ccc(NC(=O)OCc5ccccc5)cc4)n3)n(C)c2)n1 [Compound B-15],< 0.1 µM,< 0.1 µM,–,–
Cn1cc(NC(=O)c2nc(NC(=O)CCNC(=O)c3cc(NC(=O)c4nccn4C)cn3C)cn2C)cc1C(=O)NCCCC(=O)Nc1cn(C)c(C(=O)NCCC(=O)Nc2cc(C(=O)Nc3cn(C)c(C(=O)NCCC(=O)N4CC(c5cnc(CNC(=O)c6ccc(C(C)(C)C)cc6)[nH]5)C4)n3)n(C)c2)n1 [Compound B-71],0.1 to 0.5 µM,0.1 to 0.5 µM,–,–
CCN(CC)CCCC[C@H](NC(=O)c1cccnc1)C(=O)NCCOCCOCCOCCOCCOCCNC(=O)CCNC(=O)c1nc(NC(=O)c2cc(NC(=O)CCNC(=O)c3nc(NC(=O)CCCNC(=O)c4cc(NC(=O)c5nc(NC(=O)CCNC(=O)c6cc(NC(=O)c7nccn7C)cn6C)cn5C)cn4C)cn3C)cn2C)cn1C [Compound B-94],0.5 to 1 µM,0.1 to 0.5 µM,–,–
C=C(NCCC(=O)Nc1cc(C(=O)Nc2cn(C)c(C(=O)NCCC(=O)NCCC)n2)n(C)c1)c1nc(NC(=O)CCCNC(=O)c2cc(NC(=O)c3nc(NC(=O)CCNC(=O)c4cc(NC(=O)c5nccn5C)cn4C)cn3C)cn2CCCNC(=O)C(C)(C)C)cn1C [Compound B-400],< 0.1 µM,< 0.1 µM,–,–
CCCNC(=O)CCNC(=O)c1nc(NC(=O)c2cc(NC(=O)CCNC(=O)c3nc(NC(=O)CCCNC(=O)c4cc(NC(=O)c5nc(NC(=O)CCNC(=O)c6cc(NC(=O)c7nccn7C)cn6C)cn5C)cn4CC)cn3C)cn2C)cn1C [Compound B-318],0.1 to 0.5 µM,< 0.1 µM,–,–
Cn1cc(NC(=O)c2nc(NC(=O)CCNC(=O)c3cc(NC(=O)c4nccn4C)cn3C)cn2C)cc1C(=O)NCCCC(=O)Nc1cn(C)c(C(=O)NCCC(=O)Nc2cc(C(=O)Nc3cn(C)c(C(=O)NCCC(=O)N4CCC(N5CCN(CCOCCOCCOCCOCCNC(=O)OC(C)(C)C)CC5)CC4)n3)n(C)c2)n1 [Compound B-23],0.1 to 0.5 µM,> 1 µM,–,–
CCCNC(=O)CCNC(=O)c1nc(NC(=O)c2cc(NC(=O)CCNC(=O)c3nc(NC(=O)CCCNC(=O)c4cc(NC(=O)c5nc(NC(=O)CCNC(=O)c6cc(NC(=O)c7nccn7C)cn6C)cn5C)cn4CCCCCNC(=O)C(C)(C)C)cn3C)cn2C)cn1C [Compound B-398],0.1 to 0.5 µM,0.1 to 0.5 µM,–,–
CCCNC(=O)CCNC(=O)c1nc(NC(=O)c2cc(NC(=O)CCNC(=O)c3nc(NC(=O)CCCNC(=O)c4cc(NC(=O)c5nc(NC(=O)CCNC(=O)c6cc(NC(=O)c7nccn7C)cn6C)cn5C)cn4CCCCCNC(=O)c4ccccc4)cn3C)cn2C)cn1C [Compound B-397],0.1 to 0.5 µM,0.1 to 0.5 µM,–,–
Cn1cc(NC(=O)c2nc(NC(=O)CCNC(=O)c3cc(NC(=O)c4nccn4C)cn3C)cn2C)cc1C(=O)NCCCC(=O)Nc1cn(C)c(C(=O)NCCC(=O)Nc2cc(C(=O)Nc3cn(C)c(C(=O)NCCC(=O)NCCCCC(=O)N[C@@H](CCCNC(=N)N)C(=O)N[C@@H](CCCNC(=N)N)C(=O)NCCCCN=[N+]=[N-])n3)n(C)c2)n1 [Compound B-154],> 1 µM,0.1 to 0.5 µM,–,–
CN(C)CCCNC(=O)c1cc(NC(=O)CCNC(=O)c2nc(NC(=O)[C@H](N)CCNC(=O)c3cc(NC(=O)c4nc(NC(=O)CCNC(=O)c5cc(NC(=O)c6nccn6C)cn5C)cn4C)cn3C)cn2C)cn1C [Compound B-367],> 1 µM,> 1 µM,–,–
CCCCn1cc(NC(=O)c2nc(NC(=O)CCNC(=O)c3cc(NC(=O)c4nccn4C)cn3C)cn2C)cc1C(=O)NCCCC(=O)Nc1cn(C)c(C(=O)NCCC(=O)Nc2cc(C(=O)Nc3cn(C)c(C(=O)NCCC(=O)N4CCN(C)CC4)n3)n(C)c2)n1 [Compound B-426],–,–,0.1 to 0.5 µM,0.1 to 0.5 µM
CC(=O)NCCOCCCn1cc(NC(=O)c2nc(NC(=O)CCNC(=O)c3cc(NC(=O)c4nccn4C)cn3C)cn2C)cc1C(=O)NCCCC(=O)Nc1cn(C)c(C(=O)NCCC(=O)Nc2cc(C(=O)Nc3cn(C)c(C(=O)NCCC(=O)N4CCC(C#CC#CC5CCN(C(C)=O)CC5)CC4)n3)n(C)c2)n1 [Compound B-305],0.1 to 0.5 µM,< 0.1 µM,–,–
Cn1cc(NC(=O)c2nc(NC(=O)CCNC(=O)c3cc(NC(=O)c4nccn4C)cn3C)cn2C)cc1C(=O)NCCCC(=O)Nc1cn(C)c(C(=O)NCCC(=O)Nc2cc(C(=O)Nc3cn(C)c(C(=O)NCCC(=O)N[C@@H](CCCNC(=N)N)C(=O)N[C@@H](CCCNC(=N)N)C(=O)N[C@@H](CCCNC(=N)N)C(=O)N[C@@H](CCCNC(=N)N)C(=O)NCCCCN=[N+]=[N-])n3)n(C)c2)n1 [Compound B-151],> 1 µM,0.1 to 0.5 µM,–,–
CCCNC(=O)c1nc(NC(=O)c2cc(NC(=O)CCNC(=O)c3nc(NC(=O)CCCNC(=O)c4cc(NC(=O)c5nc(NC(=O)CCNC(=O)c6cc(NC(=O)c7nccn7C)cn6C)cn5C)cn4CCCCCCn4cc(COCCOCCOCCOC)nn4)cn3C)cn2C)cn1C [Compound B-376],> 1 µM,0.1 to 0.5 µM,–,–
COCCOCCOCCOCCN(CCCCCn1cc(NC(=O)c2nc(NC(=O)CCNC(=O)c3cc(NC(=O)c4nccn4C)cn3C)cn2C)cc1C(=O)NCCCC(=O)Nc1cn(C)c(C(=O)NCCC(=O)Nc2cc(C(=O)Nc3cn(C)c(C(=O)NCCC(=O)NCCOCCOCCOCCN4CCC(C#CC#CC5CCN(C(=O)OC(C)(C)C)CC5)CC4)n3)n(C)c2)n1)CCOCCOCCOCCOC [Compound B-226],0.1 to 0.5 µM,0.1 to 0.5 µM,–,–
CCCNC(=O)c1nc(NC(=O)c2cc(NC(=O)CCNC(=O)c3nc(NC(=O)CCCNC(=O)c4cc(NC(=O)c5nc(NC(=O)CCNC(=O)c6cc(NC(=O)c7nccn7C)cn6C)cn5C)cn4C)cn3C)cn2C)cn1C [Compound B-43],< 0.1 µM,< 0.1 µM,–,–
CCCNC(=O)CCNC(=O)c1nc(NC(=O)c2cc(NC(=O)CCNC(=O)c3nc(NC(=O)CCCNC(=O)c4cc(NC(=O)c5nc(NC(=O)CCNC(=O)c6cc(NC(=O)c7nccn7C)cn6C)cn5C)cn4C(C)C)cn3C)cn2C)cn1C [Compound B-319],0.1 to 0.5 µM,< 0.1 µM,–,–
Cn1cc(NC(=O)c2nccn2C)cc1C(=O)NCCC(=O)Nc1cn(C)c(C(=O)Nc2cc(C(=O)NC[C@H](N)CC(=O)Nc3cn(C)c(C(=O)NCCC(=O)Nc4cc(C(=O)Nc5cn(C)c(C(=O)NCCC(=O)N6CCC(C#CC#CC7CCNCC7)CC6)n5)n(C)c4)n3)n(C)c2)n1 [Compound B-419],–,–,0.1 to 0.5 µM,< 0.1 µM
CN(C)Cc1ncc(C2CN(C(=O)CCNC(=O)c3nc(NC(=O)c4cc(NC(=O)CCNC(=O)c5nc(NC(=O)CCCNC(=O)c6cc(NC(=O)c7nc(NC(=O)CCNC(=O)c8cc(NC(=O)c9nccn9C)cn8C)cn7C)cn6C)cn5C)cn4C)cn3C)C2)[nH]1 [Compound B-69],0.1 to 0.5 µM,0.1 to 0.5 µM,–,–
Cn1cc(NC(=O)c2nc(NC(=O)CCNC(=O)c3cc(NC(=O)c4nccn4C)cn3C)cn2C)cc1C(=O)NCCCC(=O)Nc1cn(C)c(C(=O)NCCC(=O)Nc2cc(C(=O)Nc3cn(C)c(C(N)=O)n3)n(C)c2)n1 [Compound B-308],0.1 to 0.5 µM,< 0.1 µM,–,–
